Laboratory results as given in publication doi:10.1101/735001v1 (bioRxiv, 2019).
Where a SMILES comes first, the peptide text is derived from it. [ ]: non-standard residue; d: D form. Dmt = Cc1cc(O)cc(C)c1C[C@H](N)C(=O)O

How the values were obtained:
[1] = Acrylamide dynamic quenching; assay type: physicochemical
LUVs containing 20% TOCL = test: Acrylamide dynamic quenching; assay type: binding; details: 20 μM SS-31 with LUVs 20% TOCL, n=3
[2] = tested on: LUVs containing 10 mol% TOCL; test: SS-31 titration time course binding saturation analysis; details: low salt
[3] = tested on: LUVs containing 20 mol% MLCL in POPC; test: Endogenous 2',6'-Dmt fluorescence measurement of SS-31 membrane binding; details: 20% MLCL, mean (SD), n=6
[4] = tested on: LUVs containing 20 mol% POPG in POPC; test: as above; details: for increase in SS-31 emission intensity relative to emission in the absence of LUVs: 20% POPG, mean (SD), n=6, SD
LUVs containing 20% MLCL = test: Acrylamide dynamic quenching; assay type: binding; details: 20 μM SS-31 with LUVs 20% MLCL, n=3
LUVs with POPC only = test: Endogenous 2',6'-Dmt fluorescence measurement of SS-31 membrane binding; details: 100% POPC, high salt (100 mM KCl), 20 μM SS-31, [L]eff 100 µM, mean (SD), n=6
[5] = tested on: LUVs containing 20 mol% TOCL in POPC; test: as above; details: for increase in SS-31 emission intensity relative to emission in the absence of LUVs: 20% TOCL, mean (SD), n=6, SD; for n value ([L]eff:[P] at saturation) from time course titration inflection point: 20 mol% TOCL
LUVs containing 20% POPG = test: Acrylamide dynamic quenching; assay type: binding; details: 20 μM SS-31 with LUVs 20% POPG, n=3
[6] = aqueous buffer, comparison of SS-31 with L-Tyr (Fig. S3C), n=3

SMILES	Stern-Volmer constant KSV (acrylamide quenching) [1, 6]	Stern-Volmer constant KSV (acrylamide quenching) (LUVs containing 20% TOCL; high salt)	Stern-Volmer constant KSV (acrylamide quenching) (LUVs containing 20% TOCL; low salt)	n value ([L]eff:[P] at saturation) from time course titration inflection point [2]	Stern-Volmer constant KSV (acrylamide quenching) ([1]; 20 μM SS-31 in the absence of membranes, high salt (100 mM KCl))	Stern-Volmer constant KSV (acrylamide quenching) ([1]; 20 μM SS-31 in the absence of membranes, low salt)	increase in SS-31 emission intensity relative to emission in the absence of LUVs ([3]; high salt (100 mM KCl))	increase in SS-31 emission intensity relative to emission in the absence of LUVs ([3]; low salt)	increase in SS-31 emission intensity relative to emission in the absence of LUVs ([4]; high salt (100 mM KCl))	increase in SS-31 emission intensity relative to emission in the absence of LUVs ([4]; low salt)	n value ([L]eff:[P] at saturation) from time course titration inflection point ([4]; 20 mol% POPG, low salt)	Stern-Volmer constant KSV (acrylamide quenching) (LUVs containing 20% MLCL; high salt)	Stern-Volmer constant KSV (acrylamide quenching) (LUVs containing 20% MLCL; low salt)	increase in SS-31 emission intensity relative to emission in the absence of LUVs (LUVs with POPC only)	increase in SS-31 emission intensity relative to emission in the absence of LUVs ([5]; high salt (100 mM KCl))	increase in SS-31 emission intensity relative to emission in the absence of LUVs ([5]; low salt, 20 μM SS-31, [L]eff 100 µM)	n value ([L]eff:[P] at saturation) from time course titration inflection point ([5]; high salt)	n value ([L]eff:[P] at saturation) from time course titration inflection point ([5]; low salt, SS-31 added in 2 µM increments, acrylamide in medium)	Stern-Volmer constant KSV (acrylamide quenching) (LUVs containing 20% POPG; high salt)	Stern-Volmer constant KSV (acrylamide quenching) (LUVs containing 20% POPG; low salt)
N[C@@H](Cc1ccc(O)cc1)C(=O)O [L-Tyr, reference compound]	17.1 M⁻¹																			
Cc1cc(O)cc(C)c1C[C@H](NC(=O)[C@H](N)CCCNC(=N)N)C(=O)N[C@@H](CCCCN)C(=O)N[C@@H](Cc1ccccc1)C(N)=O [SS-31, D-Arg-2’6’-dimethylTyr-Lys-Phe-NH2] (H-[dR][Dmt]KF-NH2)	4.8 M⁻¹	1.20 M⁻¹	0.15 M⁻¹	~ 12	5.4 M⁻¹	5.7 M⁻¹	1.79 (0.05)	2.48 (0.05)	1.45 (0.04)	2.16 (0.04)	~11	1.04 M⁻¹	0.02 M⁻¹	1.08 (0.04)	1.72 (0.08)	2.33 (0.07)	~ 9	~ 5	2.19 M⁻¹	0.21 M⁻¹
